# Measurements from ChEMBL document CHEMBL1152590, “Computational modeling of novel inhibitors targeting the Akt pleckstrin homology domain” (Bioorg Med Chem, 2009).
# Test system: Caco-2
# Test: Permeability across human Caco-2 cells
row,SMILES,logPapp
1,CCCc1nc2c(C)cc(-c3nc4ccccc4n3C)cc2n1Cc1ccc(-c2ccccc2C(=O)O)cc1,-4.82
2,CCOC(=O)[C@H](CCc1ccccc1)N[C@@H](C)C(=O)N1CCC[C@H]1C(=O)O,-5.64
3,CN/C(=N/CCSCc1nc[nH]c1C)NC#N [CIMETIDINE],-5.89
4,Clc1cccc(Cl)c1N=C1NCCN1 [CLONIDINE],-4.59
5,NCCc1ccc(O)c(O)c1 [DOPAMINE],-5.03
6,CNC[C@H](O)c1ccc(O)c(O)c1 [EPINEPHRINE],-6.02
7,CN1CCC[C@H]1c1cccnc1 [NICOTINE],-4.71
8,C=CCOc1ccccc1OCC(O)CNC(C)C (stereo unspecified) [OXPRENOLOL],-4.68
9,c1ccc(C2(N3CCCCC3)CCCCC2)cc1 [PHENCYCLIDINE],-4.61
10,CC(C)NCC(O)COc1cccc2[nH]ccc12 (stereo unspecified) [PINDOLOL],-4.78
11,CC(=O)[C@H]1CC[C@H]2[C@@H]3CCC4=CC(=O)CC[C@]4(C)[C@H]3CC[C@]12C [PROGESTERONE],-4.37
12,CNC(=C[N+](=O)[O-])NCCSCc1ccc(CN(C)C)o1 [RANITIDINE],-6.31
13,O=C(O)c1ccccc1O [SALICYLIC ACID],-4.79
14,O=C(O)c1cc(/N=N/c2ccc(S(=O)(=O)Nc3ccccn3)cc2)ccc1O [SULFASALAZINE],-6.33
15,Cn1c(=O)c2[nH]cnc2n(C)c1=O.O [THEOPHYLLINE],-4.35
16,CC(C)(C)NC[C@H](O)COc1nsnc1N1CCOCC1 [TIMOLOL],-4.85
